# Columns and labels:
# [1] = target: T1, recombinant human liver type GK (GST-hGK2) (Homo sapiens, UniProt P35557); experiment: Measurement of glucokinase (GK) activation; assay type: biochemical; conditions: 10 min; test compound final concentration of 10 μM; 5 mM glucose; 27° C.; relative to DMSO
# T1 construct: made in house; host or cells: E. coli BL21
# T1 sequence (P35557 1-466 isoform P35557-2): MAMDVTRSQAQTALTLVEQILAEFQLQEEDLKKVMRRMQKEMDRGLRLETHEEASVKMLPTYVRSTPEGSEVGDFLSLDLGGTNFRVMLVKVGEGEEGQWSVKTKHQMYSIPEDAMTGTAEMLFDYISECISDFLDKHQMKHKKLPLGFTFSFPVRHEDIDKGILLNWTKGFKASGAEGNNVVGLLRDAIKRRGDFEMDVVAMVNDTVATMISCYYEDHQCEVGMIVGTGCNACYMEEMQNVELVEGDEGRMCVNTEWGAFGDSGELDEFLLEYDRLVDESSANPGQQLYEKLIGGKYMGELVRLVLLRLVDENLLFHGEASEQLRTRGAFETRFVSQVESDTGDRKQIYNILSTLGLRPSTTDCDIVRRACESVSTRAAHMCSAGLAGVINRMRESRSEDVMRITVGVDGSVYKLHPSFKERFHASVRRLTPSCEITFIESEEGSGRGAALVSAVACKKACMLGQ
# Method: Test Example 1 Measurement of Glucokinase (GK) Activation
# The present test was carried out in accordance with the method described in Science 301: 370-373, 2003 with partial modification, and is summarized as below.
# First, cloning of GK (GenBank No. AK122876) was carried out. PCR was carried out using 5′-[…]-3′ (SEQ ID NO: 1) and 5′-[…]-3′ (SEQ ID NO: 2) as primers, and pME18S-FL3-Glucokinase isoform 2 as a template. The resulting reaction product was TA-cloned into a pGEM-T easy vector, and then digested with EcoRI and XhoI, and the fragment was ligated to a pGEX-5X-1 vector digested in the same manner. Using this plasmid DNA (pGEX-human Glucokinase 2), a recombinant human liver type GK (GST-hGK2) fused with GST (Glutathione S-transferase) was expressed in E. coli (strain BL21), and purified by Glutathione Sepharose.
# The reaction of GK was carried out at 27° C. on a 96-well plate. First, 1 μL of a test compound diluted with dimethylsulfoxide (DMSO) (final concentration of 10 μM) was added to a 89 μL of an enzyme mixed liquid (25 mM HEPES pH 7.4, 25 mM KCl, 2 mM MgCl2, 1 mM ATP, 0.1% BSA, 1 mM DTT, 1 mM NADP (nicotinamide adenine dinucleotide phosphate), 2.5 U/mL glucose-6-phosphate dehydrogenase, GST-hGK2 adjusted to ΔODCont as described later to be about 0.05 to 0.10, all of which are final concentrations). Subsequently, 10 μL of a substrate solution (final concentration of 5 mM glucose) was added thereto to initiate the reaction. In order to quantify a final product NADPH, an absorbance at a wavelength of 340 nm was measured, and the GK activation (%) of the test compound was calculated from the increase (DOD) in the absorbance during the first 10 minutes after the initiation of the reaction, using the following formula.
# GK activation (%)=[(ΔODTest)−(ΔODCont)]/(ΔODCont)×100
# ΔODTest: ΔOD at the test compound
# Further, Ex indicates Example compound Number.
# [2] = system: ICR mice; experiment: Oral glucose loading test in normal mice; assay type: in vivo; conditions: Mus musculus, AUC lowering rate of blood glucose, immediately before to 2 hours after glucose loading, vs solvent control, 10 mg/kg orally, ICR mice fasted overnight, glucose loading after 30 minutes, read-out: Blood glucose level lowering rate (%)
# Method: Test Example 2 Oral Glucose Loading Test in Normal Mice
# The test compound was dissolved in a solvent (5% Cremophor, 5% aqueous DMSO solution), 10 mg/kg of the test compound was orally administered to ICR mice after fasting overnight, and after 30 minutes, oral glucose loading was carried out. Immediately before the administration of the test compound, immediately before the glucose loading, and 0.25, 0.5, 1, and 2 hours after the glucose loading, blood was collected and blood glucose levels were measured. An AUC lowering rate (%) of the blood glucose levels from immediately before the glucose loading to 2 hours after the glucose loading with respect to that of the solvent control was calculated.
activation at 10 µM [1],SMILES,inhibition in vivo at 10 mg/kg [2]
237%,"COCCOCC(=O)N(CC1CC1)c1cnc(Oc2cc(O[C@@H](C)CO)cc(C(=O)Nc3ccn(C)n3)c2)cn1 [Example 156, 3-[(5-{(cyclopropylmethyl)[(2-methoxyethoxy)acetyl]amino}pyrazin-2-yl)oxy]-5-{[(2S)-1-hydroxypropan-2-yl]oxy}-N-(1-methyl-1H-pyrazol-3-yl)benzamide]",18%
306%,C[C@@H](CO)Oc1cc(Oc2ccc(-c3nc(C(N)=O)no3)nc2)cc(C(=O)Nc2ccn(C)n2)c1 [Example 162],25%
237%,C[C@@H](CO)Oc1cc(Oc2cnc(N(CC3CC3)C(=O)[C@H]3CCCO3)cn2)cc(C(=O)Nc2ccn(C)n2)c1 [Example 158],29%
345%,CC(=O)N(CC1CC1)c1cc(Oc2cnc(N(CC3CC3)C(=O)C3CCOCC3)cn2)cc(C(=O)Nc2ccn(C)n2)c1 [Example 101],48%
376%,COCCOCC(=O)N(CC1CC1)c1cnc(Oc2cc(OC(C)C)cc(C(=O)Nc3ccn(C)n3)c2)cn1 [Example 119],40%
502%,COC[C@H](C)Oc1cc(Oc2ccc(-c3noc(C(=O)N(C)C)n3)nc2)cc(C(=O)Nc2ccn(C)n2)c1 [Example 130],65%
316%,CNC(=O)c1noc(-c2cnc(Oc3cc(OC(C)C)cc(C(=O)Nc4ccn(C)n4)c3)cn2)n1 [Example 138],61%

# Second part, the molecule before the results:
SMILES,activation at 10 µM [1],inhibition in vivo at 10 mg/kg [2]
CC(C)Oc1cc(Oc2ccc(-c3nc(C(=O)N(C)C)no3)nc2)cc(C(=O)Nc2ccn(C)n2)c1 [Ex 10],380%,61%
CC(C)Oc1cc(Oc2cnc(-c3noc(C(=O)N(C)C)n3)cn2)cc(C(=O)Nc2ccn(C)n2)c1 [Example 67],498%,57%
CNC(=O)c1nnc(-c2ccc(Oc3cc(OC(C)C)cc(C(=O)Nc4ccn(C)n4)c3)cn2)o1 [Ex 3],380%,64%
COC[C@H](C)Oc1cc(Oc2cnc(N(CC3CC3)C(=O)CN(C)C)cn2)cc(C(=O)Nc2ccn(C)n2)c1 [Ex 29],287%,49%
CC(C)Oc1cc(Oc2ccc(-c3nc(C(N)=O)no3)nc2)cc(C(=O)Nc2ccn(C)n2)c1 [Ex 9],319%,46%
CC(C)Oc1cc(Oc2cnc(-c3nnc(C(=O)N(C)C)o3)cn2)cc(C(=O)Nc2ccn(C)n2)c1 [Example 98],498%,54%
COC[C@H](C)Oc1cc(Oc2ccc(-c3nc(C(N)=O)no3)nc2)cc(C(=O)Nc2ccn(C)n2)c1 [Ex 1],295%,37%
C[C@@H](CO)Oc1cc(Oc2cnc(N(CC3CC3)C(=O)C3CCOCC3)cn2)cc(C(=O)Nc2ccn(C)n2)c1 [Ex 24],269%,49%
CC(C)Oc1cc(Oc2cnc(N(CC3CC3)C(=O)N3CCNC3=O)cn2)cc(C(=O)Nc2ccn(C)n2)c1 [Example 74],298%,45%
CNC(=O)c1noc(-c2ccc(Oc3cc(OC(C)C)cc(C(=O)Nc4ccn(C)n4)c3)cn2)n1 [Ex 2],338%,59%
CC(C)Oc1cc(Oc2cnc(N(CC3CC3)C(=O)C3CCOCC3)cn2)cc(C(=O)Nc2ccn(C)n2)c1 [Ex 23],347%,52%

# — US20120277208A1 (ASTELLAS PHARMA INC., priority 2009, published 2012)
